Literature values as cited in US20060153940A1, “Use of physiologically active fatty acids” (priority 2004, published 2006).

## β-escin
alcohol
  solubility in alcohol: can be dissolved in alcohol
water
  solubility in water: practically water-insoluble
